Measured values published in patent US11098033B2, “Ku inhibitors and their use” (INDIANA UNIVERSITY RESEARCH AND TECHNOLOGY CORPORATION, priority 2016, dated 2021).
Values joined by “and” are separate entries in the source; they are usually repeats but may differ in a detail not shown here. Identical values can stand only once.

Key:
[1] = biological target: T1, Recombinant human Ku heterodimer (Homo sapiens, UniProt P12956+P13010); assay: Ku-DNA binding assay; conditions: Table 2, synthesized derivatives; several values in a cell = separate determinations; read-out: IC50
T1 construct: made in house; host or cells: insect cells infected with recombinant baculovirus
Excerpt: Ku is a DNA end-binding protein that is essential for the repair of DNA double strand breaks via the NHEJ pathway. The mechanism of DNA binding by Ku is via a toroid structure that encircles double-stranded DNA from a terminus.

[2] = tested on: NHEJ end joining in cell free extract from HEK 293; assay: In vitro NHEJ (end joining) assay with cell free extract; type: biochemical; conditions: linearized plasmid DNA (3 kbp), HEK 293 cell free extract pre-incubated with inhibitor, ATP; read-out: IC50 of inhibition of end joining
Method: Radiolabeled linearized DNA was incubated with whole cell extracts with increasing amounts of inhibitor NG-02-132.
A linearized plasmid DNA (3 kbp) is incubated with a cell free extract prepared from a NHEJ competent cell (HEK 293) and ATP. The results presented in FIG. 8 show the substrate alone in lane 1 and the degree of end joining control reactions as evidenced by the formation of plasmid multimers.

[3] = tested on: NHEJ activity in H460 cells; assay: Host cell reactivation assay of NHEJ mediated re-circularization of a linearized GFP plasmid; type: cell-based
Excerpt: Disruption of Ku-DNA binding should result in inhibition of NHEJ activity, and to test this inhibition we will employ a host cell reactivation assay. This assay utilizes a linearized plasmid encoding a GFP gene that is transfected into the cell and expressed upon NHEJ mediated re-circularization of the plasmid (Sears, CA., 2012 and Woods, D., 2015). Co-transfection of a circular RFP plasmid accounts for differences in transfection efficiency, and NHEJ mediated repair of the GFP plasmid can be quantified by assessing the ratio of green: red cells. This assay will be used to assess the Ku inhibitor compounds in H460 and HEK-293 cells, and the data obtained from these experiments will allow us to determine the sensitivity of the chemical compounds and effect of Ku inhibition on NHEJ activity. As this is a cellular assay, we will also utilize this assay to do a series of time course experiments to determine the optimal time to deliver the inhibitor to cells in order to achieve maximum inhibition of NHEJ activity.

T1 sequence (P12956 whole entry): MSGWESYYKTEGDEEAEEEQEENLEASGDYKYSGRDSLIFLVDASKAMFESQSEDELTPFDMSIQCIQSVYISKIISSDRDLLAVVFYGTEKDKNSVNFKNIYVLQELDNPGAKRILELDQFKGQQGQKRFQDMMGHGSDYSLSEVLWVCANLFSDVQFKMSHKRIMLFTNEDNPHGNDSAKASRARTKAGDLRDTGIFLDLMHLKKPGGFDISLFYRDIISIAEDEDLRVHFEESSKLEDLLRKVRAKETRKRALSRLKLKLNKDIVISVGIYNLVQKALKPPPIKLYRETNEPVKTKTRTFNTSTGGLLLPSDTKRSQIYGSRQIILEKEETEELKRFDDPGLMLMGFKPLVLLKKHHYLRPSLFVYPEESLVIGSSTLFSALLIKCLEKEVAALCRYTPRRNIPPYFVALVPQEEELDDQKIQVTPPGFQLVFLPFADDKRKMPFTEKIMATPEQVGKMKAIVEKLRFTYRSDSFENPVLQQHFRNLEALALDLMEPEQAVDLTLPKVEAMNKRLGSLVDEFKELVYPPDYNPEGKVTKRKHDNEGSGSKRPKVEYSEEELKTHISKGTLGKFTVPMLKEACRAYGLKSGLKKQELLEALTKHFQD
T1 sequence (P13010 whole entry): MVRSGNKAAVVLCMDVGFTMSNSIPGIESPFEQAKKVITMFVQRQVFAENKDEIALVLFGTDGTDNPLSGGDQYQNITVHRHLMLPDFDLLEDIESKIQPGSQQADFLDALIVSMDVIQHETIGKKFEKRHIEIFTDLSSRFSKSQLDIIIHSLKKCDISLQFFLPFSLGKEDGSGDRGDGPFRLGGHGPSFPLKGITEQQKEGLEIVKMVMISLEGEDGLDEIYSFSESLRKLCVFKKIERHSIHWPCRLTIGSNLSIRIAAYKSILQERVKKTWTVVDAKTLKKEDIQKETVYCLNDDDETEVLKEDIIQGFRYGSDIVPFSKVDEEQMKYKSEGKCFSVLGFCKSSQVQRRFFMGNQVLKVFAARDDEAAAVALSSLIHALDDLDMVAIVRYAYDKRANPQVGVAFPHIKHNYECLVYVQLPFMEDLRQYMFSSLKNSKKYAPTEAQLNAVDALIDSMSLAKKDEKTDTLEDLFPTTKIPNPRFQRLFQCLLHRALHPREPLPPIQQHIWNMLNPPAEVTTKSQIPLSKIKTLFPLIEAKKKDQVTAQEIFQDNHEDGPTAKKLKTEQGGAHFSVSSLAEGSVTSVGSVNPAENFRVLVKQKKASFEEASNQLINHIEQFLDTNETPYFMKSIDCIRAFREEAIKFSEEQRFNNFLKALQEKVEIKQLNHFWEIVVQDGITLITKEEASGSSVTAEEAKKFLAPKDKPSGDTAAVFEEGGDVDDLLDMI

| SMILES | IC50 [1] | IC50 [2] | NHEJ catalyzed repair events ([3]; H460 cells preincubated 2 hours prior to transfection of the reporters, measured 48 hours post transfection, without compound 26%, preliminary data) | reduction of NHEJ catalyzed repair events ([3]; H460 cells, 2 hours preincubation, 48 hours post transfection, from 26% to 17%) |
| --- | --- | --- | --- | --- |
| COc1cccc(NC(=O)c2cc(-c3ccc(CC4C(=O)N(c5cccc(C(=O)O)c5)N=C4C)o3)ccc2Cl)c1 (centres unmarked) [NG-02-132/ NG-02-149, 3-(4-((5-(4-Chloro-3-((3-methoxyphenyl)carbamoyl)phenyl)furan-2-yl)methyl)-3-methyl-5-oxo-4,5-dihydro-1H-pyrazol-1-yl)benzoic acid] | 1 µM (2×) and 4 µM and 6 µM | ~15 µM | – | – |
| COc1cccc(NC(=O)c2cc(-c3ccc(/C=C4\C(=O)N(c5cccc(C(=O)O)c5)N=C4C)o3)ccc2Cl)c1 [NG-01-68/02-140/03-180, (Z)-3-(4-((5-(4-Chloro-3-((3-methoxyphenyl)carbamoyl)phenyl)furan-2-yl)methylene)-3-methyl-5-oxo-4,5-dihydro-1H-pyrazol-1-yl)benzoic acid] | 6 µM and 15 µM and 4 µM (2×) | – | 17% | 35% |
